Counter-ions that a name gives are not always drawn.
Biological target: T1, human TRPM8 (Homo sapiens, UniProt Q7Z2W7)
T1 construct: expressed in transfected cells; host or cells: Chinese hamster ovary (CHO) cells, T-REx tetracycline-inducible expression system (Invitrogen); co-transfected with pcDNA3.1 aequorin
Assay: Luminescence readout assay for measuring intracellular calcium (aequorin, CHO cells expressing human TRPM8; icilin, L-menthol or cold activation)
Format: cell-based
Settings: not given
Procedure, shortened: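 Activation was by 1 μM icilin, 100 μM L-menthol (test compound 2.5 min ahead) or cold buffer below 10° C (compound 1 min ahead). Calcium rise measured as aequorin luminescence in CHO cells with tetracycline-inducible human TRPM8.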

T1 sequence (Q7Z2W7 whole entry): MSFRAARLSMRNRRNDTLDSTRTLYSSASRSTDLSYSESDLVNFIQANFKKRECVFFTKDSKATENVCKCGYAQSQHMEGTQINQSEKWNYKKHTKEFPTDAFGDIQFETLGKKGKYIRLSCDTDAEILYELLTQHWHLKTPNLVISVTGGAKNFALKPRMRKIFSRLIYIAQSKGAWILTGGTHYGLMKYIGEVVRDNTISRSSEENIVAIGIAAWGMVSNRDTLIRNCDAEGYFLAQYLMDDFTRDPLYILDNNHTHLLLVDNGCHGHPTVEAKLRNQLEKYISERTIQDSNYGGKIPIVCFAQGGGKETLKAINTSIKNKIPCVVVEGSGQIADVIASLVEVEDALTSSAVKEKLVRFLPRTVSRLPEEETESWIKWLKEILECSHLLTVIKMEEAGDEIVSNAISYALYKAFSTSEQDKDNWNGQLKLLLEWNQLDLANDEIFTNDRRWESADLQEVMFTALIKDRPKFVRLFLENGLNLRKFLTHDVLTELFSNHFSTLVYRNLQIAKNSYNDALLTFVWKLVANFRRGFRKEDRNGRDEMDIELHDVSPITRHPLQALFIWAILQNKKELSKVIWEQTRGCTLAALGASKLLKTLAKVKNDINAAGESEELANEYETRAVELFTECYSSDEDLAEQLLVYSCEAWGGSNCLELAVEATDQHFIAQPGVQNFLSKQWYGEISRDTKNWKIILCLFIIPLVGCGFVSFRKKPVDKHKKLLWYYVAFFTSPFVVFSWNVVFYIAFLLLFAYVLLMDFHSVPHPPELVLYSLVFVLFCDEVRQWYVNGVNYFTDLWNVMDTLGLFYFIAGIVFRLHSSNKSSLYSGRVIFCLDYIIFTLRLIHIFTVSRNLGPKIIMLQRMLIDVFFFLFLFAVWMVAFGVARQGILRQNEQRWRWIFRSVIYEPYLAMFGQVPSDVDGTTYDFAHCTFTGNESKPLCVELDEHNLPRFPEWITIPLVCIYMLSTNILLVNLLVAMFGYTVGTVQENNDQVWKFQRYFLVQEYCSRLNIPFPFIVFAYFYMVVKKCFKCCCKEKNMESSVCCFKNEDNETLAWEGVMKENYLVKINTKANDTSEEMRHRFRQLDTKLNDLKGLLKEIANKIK

IC50 [nM] | Compound
4.07 | O=C(N[C@]1(c2ccc(OC(F)(F)F)cc2)CCOc2cccnc21)c1ccc2[nH]cnc2c1 [Example 237, (S)-N-(4-(4-(trifluoromethoxy)phenyl)-3,4-dihydro-2H-pyrano[3,2-b]pyridin-4-yl)1lH-benzo[d]imidazole-5-carboxamide formate]

Same assay, conditions: CHO cells expressing human TRPM8, icilin activation (1 μM), aequorin luminescence; read-out: hTRPM8 IC50

IC50 [nM] | Compound
92 | O=C(N[C@]1(c2ccc(OC(F)(F)F)c(F)c2)CCOc2cccnc21)c1ccc(C(=O)O)c(Cl)c1 [Example 197, (S)-2-chloro-4-((4-(3-fluoro-4-(trifluoromethoxy)phenyl)-3,4-dihydro-2H-pyrano[3,2-b]pyridin-4-yl)carbamoyl) benzoic acid 2,2,2-trifluoroacetate]
52.1 | O=C(N[C@]1(c2ccc(OC(F)(F)F)cc2)CCOc2cccnc21)c1cnn2cccnc12 [Example 244, (S)-N-(4-(4-(trifluoromethoxy)phenyl)-3,4-dihydro-2H-pyrano[3,2-b]pyridin-4-yl)pyrazolo[1,5-a] pyrimidine-3-carboxamide formate]
39 | O=C(Nc1ccccc1C(=O)O)N[C@]1(c2ccc(OC(F)(F)F)c(F)c2)CCOc2cccnc21 [Example 106, (S)-2-(3-(4-(3-fluoro-4-(trifluoromethoxy)phenyl)-3,4-dihydro-2H-pyrano[3,2-b]pyridin-4-yl)ureido)benzoic acid]
270 | O=C(N[C@]1(c2ccc(OC(F)(F)F)cc2)CCOc2cccnc21)c1cc2cccnc2[nH]1 [Example 216, (S)-N-(4-(4-(trifluoromethoxy)phenyl)-3,4-dihydro-2H-pyrano[3,2-b]pyridin-4-yl)-1H-pyrrolo[2,3-b] pyridine-2-carboxamide formate]
2400 | CC(C)(C)[S@@+]([O-])N[C@]1(c2ccc(OC(F)(F)F)c(F)c2)CCOc2cccnc21 [Example 152, (R)—N—((S)-4-(3-fluoro-4-(trifluoromethoxy)phenyl)-3,4-dihydro-2H-pyrano[3,2-b]pyridin-4-yl)-2-methylpropane-2-sulfinamide]
2310 | O=C(N[C@]1(c2ccc(OC(F)(F)F)cc2)CCOc2cccnc21)c1ncc[nH]1 [Example 210, (S)-N-(4-(4-(trifluoromethoxy)phenyl)-3,4-dihydro-2H-pyrano[3,2-b]pyridin-4-yl)-1H-imidazole-2-carboxamide formate]
216 | Cc1ccncc1-c1ccc([C@@]2(NC(=O)c3ccc(F)cc3)CCOc3cccnc32)cc1 [Example 132, (S)-4-fluoro-N-(4-(4-(4-methylpyridin-3-yl)phenyl)-3,4-dihydro-2H-pyrano[3,2-b]pyridin-4-yl)benzamide]
31 | O=C(N[C@]1(c2ccc(OC(F)(F)F)cc2)CCOc2cccnc21)c1cccc2cccnc12 [Example 221, (S)-N-(4-(4-(trifluoromethoxy)phenyl)-3,4-dihydro-2H-pyrano[3,2-b]pyridin-4-yl)quinoline-8-carboxamide formate]
72 | O=C(O)c1cccc(C(=O)N[C@]2(c3ccc(OC(F)(F)F)c(F)c3)CCOc3cccnc32)c1 [Example 178, (S)-3-((4-(3-fluoro-4-(trifluoromethoxy)phenyl)-3,4-dihydro-2H-pyrano[3,2-b]pyridin-4-yl)carbamoyl) benzoic acid]
111 | CC(=O)Nc1ccc(C(=O)N[C@]2(c3ccc(C(F)(F)F)cc3)CCOc3cccnc32)nc1 [Example 43, (S)-5-acetamido-N-(4-(4-(trifluoromethyl)phenyl)-3,4-dihydro-2H-pyrano[3,2-b]pyridin-4-yl)picolinamide]
1920 | CS(=O)(=O)c1ccccc1-c1ccc([C@@]2(NC(=O)c3ccc(F)cc3)CCOc3cccnc32)cc1 [Example 144, (S)-4-fluoro-N-(4-(2′-(methylsulfonyl)-[1,1′-biphenyl]-4-yl)-3,4-dihydro-2H-pyrano[3,2-b]pyridin-4-yl)benzamide]
770 | Cc1ccc(-c2ccc([C@@]3(NC(=O)c4ccc(F)cc4)CCOc4cccnc43)cc2)cc1N [Example 148, (S)-N-(4-(3′-amino-4′-methyl-[1,1′-biphenyl]-4-yl)-3,4-dihydro-2H-pyrano[3,2-b]pyridin-4-yl)-4-fluorobenzamide]
86 | O=C(N[C@]1(c2ccc(OC(F)(F)F)c(F)c2)CCOc2cccnc21)c1ccc(C(=O)O)c(-c2ccccc2)c1 [Example 290, (S)-5-((4-(3-fluoro-4-(trifluoromethoxy)phenyl)-3,4-dihydro-2H-pyrano[3,2-b]pyridin-4-yl)carbamoyl)-[1,1′-biphenyl]-2-carboxylic acid]
189 | COc1cc2cc(C(=O)N[C@]3(c4ccc(OC(F)(F)F)cc4)CCOc4cccnc43)[nH]c2cn1 [Example 274, (S)-5-methoxy-N-(4-(4-(trifluoromethoxy)phenyl)-3,4-dihydro-2H-pyrano[3,2-b]pyridin-4-yl)-1H-pyrrolo[2,3-c] pyridine-2-carboxamide formate]
44 | O=C(N[C@]1(c2ccc(Cl)c(Cl)c2)CCOc2cccnc21)c1ccc(=O)[nH]c1 [Example 194, (S)-N-(4-(3,4-dichlorophenyl)-3,4-dihydro-2H-pyrano[3,2-b]pyridin-4-yl)-6-oxo-1,6-dihydropyridine-3-carboxamide]
150 | O=C(N[C@]1(c2ccc(OC(F)(F)F)cc2)CCOc2cccnc21)c1cocn1 [Example 226, (S)-N-(4-(4-(trifluoromethoxy)phenyl)-3,4-dihydro-2H-pyrano[3,2-b]pyridin-4-yl)oxazole-4-carboxamide formate]

IC50 [nM] | Compound
38 | O=C(N[C@]1(c2ccc(C(F)(F)F)cc2)CCOc2cccnc21)c1c[nH]c(=O)cn1 [Example 45, (S)-5-oxo-N-(4-(4-(trifluoromethyl)phenyl)-3,4-dihydro-2H-pyrano[3,2-b]pyridin-4-yl)-4,5-dihydropyrazine-2-carboxamide]
115 | Cn1cc(C(=O)N[C@]2(c3ccc(OC(F)(F)F)c(F)c3)CCOc3cccnc32)cc1C(=O)O [Example 299, (S)-4-((4-(3-fluoro-4-(trifluoromethoxy)phenyl)-3,4-dihydro-2H-pyrano[3,2-b]pyridin-4-yl)carbamoyl)-1-methyl-1H-pyrrole-2-carboxylic acid]
14 | O=C(NC1(c2ccc(OC(F)(F)F)cc2)CCOc2cccnc21)c1ccc2[nH]c(=O)oc2c1 (centres unmarked) [Example 22, 2-oxo-N-(4-(4-(trifluoromethoxy)phenyl)-3,4-dihydro-2H-pyrano[3,2-b]pyridin-4-yl)-2,3-dihydrobenzo[d]oxazole-6-carboxamide]
43 | COC(=O)c1ccc(C(=O)N[C@]2(c3ccc(C(F)(F)F)cc3)CCOc3cccnc32)nc1 [Example 175, (S)-methyl 6-((4-(4-(trifluoromethyl)phenyl)-3,4-dihydro-2H-pyrano[3,2-b]pyridin-4-yl)carbamoyl) nicotinate]
36 | COC(=O)c1cc(C(=O)N[C@]2(c3ccc(OC(F)(F)F)c(F)c3)CCOc3cccnc32)ccc1OC [Example 182, (S)-methyl 5-((4-(3-fluoro-4-(trifluoromethoxy)phenyl)-3,4-dihydro-2H-pyrano[3,2-b]pyridin-4-yl)carbamoyl)-2-methoxybenzoate]
6 | O=C(Nc1ccncc1)N[C@]1(c2ccc(OC(F)(F)F)c(F)c2)CCOc2cccnc21 [Example 96, (S)-1-(4-(3-fluoro-4-(trifluoromethoxy)phenyl)-3,4-dihydro-2H-pyrano[3,2-b]pyridin-4-yl)-3-(pyridin-4-yl)urea]
879 | CS(=O)(=O)c1ccc(-c2ccc([C@@]3(NC(=O)c4ccc(F)cc4)CCOc4cccnc43)cc2)cc1 [Example 119, (S)-4-fluoro-N-(4-(4′-(methylsulfonyl)-[1,1′-biphenyl]-4-yl)-3,4-dihydro-2H-pyrano[3,2-b]pyridin-4-yl)benzamide]
54 | O=C(N[C@]1(c2ccc(Cl)c(F)c2)CCOc2cccnc21)c1ccccc1 (single isomer, unassigned) [Example 15]
269 | O=C(N[C@]1(c2ccc(C(F)(F)F)cc2)CCOc2cccnc21)c1cncs1 [Example 39, (S)-N-(4-(4-(trifluoromethyl)phenyl)-3,4-dihydro-2H-pyrano[3,2-b]pyridin-4-yl)thiazole-5-carboxamide]
25 | Cc1cc(C(=O)N[C@]2(c3ccc(OC(F)(F)F)c(F)c3)CCOc3cccnc32)ncc1C(=O)O [Example 333, (S)-6-((4-(3-fluoro-4-(trifluoromethoxy)phenyl)-3,4-dihydro-2H-pyrano[3,2-b]pyridin-4-yl)carbamoyl)-4-methylnicotinic acid]
784 | O=C(NC1(c2ccc(C(F)(F)F)cc2)CCCc2cccnc21)c1ccc(=O)[nH]c1 (centres unmarked) [Example 31, 6-oxo-N-(8-(4-(trifluoromethyl)phenyl)-5,6,7,8-tetrahydroquinolin-8-yl)-1,6-dihydropyridine-3-carboxamide]
32 | Cn1ncc2c(C(=O)N[C@]3(c4ccc(OC(F)(F)F)cc4)CCOc4cccnc43)cccc21 [Example 261, (S)-1-methyl-N-(4-(4-(trifluoromethoxy)phenyl)-3,4-dihydro-2H-pyrano[3,2-b]pyridin-4-yl)-1H-indazole-4-carboxamide formate]
134 | O=C(Nc1cnccn1)N[C@]1(c2ccc(OC(F)(F)F)c(F)c2)CCOc2cccnc21 [Example 82, (S)-1-(4-(3-fluoro-4-(trifluoromethoxy)phenyl)-3,4-dihydro-2H-pyrano[3,2-b]pyridin-4-yl)-3-(pyrazin-2-yl)urea]
293 | C[C@H](NC(=O)N[C@]1(c2ccc(C(F)(F)F)cc2)CCOc2cccnc21)C(F)(F)F [Example 67, 1-((S)-4-(4-(trifluoromethyl)phenyl)-3,4-dihydro-2H-pyrano[3,2-b]pyridin-4-yl)-3-((S)-1,1,1-trifluoropropan-2-yl)urea 2,2,2-trifluoroacetate]
908 | Nc1cccc(-c2ccc([C@@]3(NC(=O)c4ccc(F)cc4)CCOc4cccnc43)cc2)c1 [Example 126, (S)-N-(4-(3′-amino-[1,1′-biphenyl]-4-yl)-3,4-dihydro-2H-pyrano[3,2-b]pyridin-4-yl)-4-fluorobenzamide]
